We go through four compounds from US7763733B2, “Ritonavir analogous compound useful as retroviral protease inhibitor, preparation of the ritonavir analogous compound and pharmaceutical composition for the ritonavir analogous compound” (Cristalia Produtos Quimicos Farmaceuticos Ltda., priority 2004, dated 2010).

One assay concerns HIV. To be noted: anti-HIV activity test, values as described in U.S. Pat. No. 5,541,206; cited from earlier work.
The next assay relates to HIV pNL4-3 (subtype B). Kind of assay: Antiviral activity in HIV-infected MT-4 cells (MTT cellular viability). The assay is classed as cell-based. To be noted: MOI 0.002, MTT staining at the sixth day, ritonavir as internal control. Here is the method:
The anti-HIV activity of the compound of the present invention was determined using MT-4 cells, a lymphocytic cell line established in culture, CD4^+, and expressing HIV-1 […] co-receptors. The cells were infected using a plate having 96 wells containing 10^4 cells/well. The cells were infected with MOI (Multiplicity Of Infection) of 0.002 (NIH requirement=0.001 to 0.01). The drugs were initially diluted in dimethyl sulfoxide (DMSO) to a final concentration of 20 mM and later in RPMI 1640 base medium to a concentration of 200 μM. […] The culture medium utilized for this procedure was RPMI 1640 including 10% bovine fetal serum, antibiotics […]/penicillin and L-glutamine. The most concentrated well has a final concentration of 10.000 μM being followed by the indicated dilutions: 2.0 μM; 0.400 μM; 0.0800 μM; 0.016 μM; 0.0032 μM; 0.00064 μM and 0.000128 μM. The ninth well is considered as the infection control, without adding the drug. Each line having […] infected wells is produced in triplicate for later statistics analyses. […]
The infection test is maintained in an incubator having 5% of CO2 at 37° C. and monitored daily using phase optical microscopy method to verify appearance of syncytia (multinuclear cells). […]

As to `CC(C)c1nc(CN(C)C(=O)NC(C(=O)NC(Cc2ccccc2)CC(O)C(Cc2ccccc2)NC(=O)OCc2cncs2)C(C)C)cs1` [ritonavir, (2S,3S,5S)-5-[N—[N—[[N-methyl-N-[(2-isopropyl-4-thiazolyl)methyl]amino]carbonyl]vanilyl]amino-2-[N [(5-thiazolyl)methoxycarbonyl]amino-1,6-diphenyl-3-hydroxyhexane], the IC50 in the assay with HIV was 25 to 40 nM. For `CC(C)c1nc(CN(C)C(=O)N[C@H](C(=O)N[C@@H](Cc2ccccc2)C[C@H](O)[C@H](Cc2ccccc2)NC(=O)[C@@H](NC(=O)N(C)Cc2csc(C(C)C)n2)C(C)C)C(C)C)cs1` [example 1C, (2S,3S,5S)-2,5-bis-[N—[N—[[N-methyl-N-[(2-isopropyl-4-thiazolyl)methyl]amino]carbonyl]valinyl]amino]-1,6-diphenyl-3-hydroxyhexane], in the assay with HIV pNL4-3 (subtype B), the “anti-HIV activity (EC50, FIG. 2) in comparison with ritonavir and analogs” value was “surprisingly superior activity”. Consider `CC(C)c1nc(CN(C)C(=O)NC(C(=O)NC(Cc2ccccc2)CC(O)C(Cc2ccccc2)NC(=O)OCc2cnc(C(C)C)s2)C(C)C)cs1` (stereo not shown) [example 45C], for which the IC50 in the assay on HIV was 36 to 40 nM. `CC(C)Cc1nc(CN(C)C(=O)N[C@H](C(=O)N[C@@H](Cc2ccccc2)C[C@H](O)[C@H](Cc2ccccc2)NC(=O)OCc2cncs2)C(C)C)cs1` [example 59G]: in the assay on HIV, the IC50 is 110 to 130 nM.
